According to patent publication US12115182B2, “Adenosine A2A agonists for the treatment of cytokine storm syndrome” (priority 2021, dated 2024):
Entries after “also recorded” stand apart in the source; their conditions may differ.

Columns and labels:
[1] = tested on: plasma proinflammatory cytokines/chemokines; assay: Luminex plasma cytokines/chemokines in regadenoson-treated COVID-19 patients; type: in vivo, human
SARS-CoV-2 = assay: Regadenoson in SARS-CoV-2-infected K18-ACE2 mice: survival; type: in vivo, mouse; details: for survival / mortality of infected K18-ACE2 mice: 1.44 μg/kg/hr, 7-day Alzet pump, vs saline
[2] = tested on: soluble receptor for advanced glycation end-products (sRAGE); assay: Plasma sRAGE in lung transplant recipients; type: in vivo, human
Method: (§1) Blood was drawn for cytokine/chemokine, damage associated molecular patterns (DAMPs) at the following different timepoints: 1) before infusion (baseline), 2) 15 minutes before reperfusion of the 1st lung, 3) 30 minutes after reperfusion of 1st lung, 4) 30 minutes after reperfusion of 2nd lung, and 5) 6 hours after reperfusion of 1st lung.
(§2) The cytokines/chemokines, HMGB1 and sRAGE were determined at The University of Virginia Flow Cytometry Core (RRID: SCR 017829) as previously described (LAU et al., J Heart Lung Transplant, (2020), 39:563-570). The customized 11-plex cytokine panel detects IL-1, IL-2, IL-6, IL-7, IL-8, IL-10, IL-12P40, IL-12P70, IL-17, TNFa, and IFN-γ (Millipore Sigma, Burlington, MA).
We designed this trial mainly as a Phase I safety and feasibility study that would allow an optimal infusional dose to be determined based on dose-limiting toxicities identified in lung transplant recipients. We also evaluated the potential efficacy by clinical outcomes and the lab evaluation of various cytokines/chemokines, DAMPs and enzymes. […] HMGB1 and sRAGE levels were measured using a customized human Cytokine/Chemokine multiplex immunoassay (Millipore Sigma, Burlington, MA) at The University of Virginia Flow Cytometry Core (RRID: SCR_01 7829) as previously described (LAU et al., J Heart Lung Transplant, (2020), 39:563-570).

[3] = cited from earlier work
[4] = tested on: plasma cytokines/chemokines; assay: Plasma cytokines/chemokines in lung transplant recipients (11-plex); type: in vivo, human
Method: as §1, §2
Statistical differences of cytokine/chemokines, heart rates and blood pressures between groups were determined by two-way ANOVA followed by Tukey's multiple comparison test (GraphPad Prism 9.0). The PGD scores were analyzed by chi-squared test. The intubation times and hospital LOS, ICU LOS were analyzed by ANOVA of log and Kruskal-Wallis. Data was reported as means±SD. P value equal or less than 0.05 was considered significant.

[5] = Plasma levels of regadenoson in COVID-19 patients (LC-MS); type: in vivo, human; details: loading dose then 1.44 μg/kg/hr for 6 hours
Method: (§3) In cohort 1 of this trial, we tested the safety, tolerability, and toxicity of regadenoson in 5 COVID-19 patients (WHO stages 4-5) receiving supplemental oxygen without mechanical ventilation. All subjects received an infused loading dose of 5.0 μg/kg up to a maximum of 400 μg over 30 minutes, followed by a maintenance dose of 1.44 μg/kg/hr for 6 hours. Toxicity of regadenoson was graded by using Common Terminology for Adverse Events Criteria. Vital signs, pulse oximetry, arterial blood gas, laboratory studies, and electrocardiograms were performed on a schedule commensurate with level of care to identify potential risk of the study drug during and 12 hours post infusion. The trial was monitored by an NIH designated DSMB. Peripheral blood samples were collected at 4 timepoints. Along with clinical monitoring, plasma levels of cytokines (14-plex Luminex panel) were measured at various time points. Cytokine data were analyzed by SAS 9.5 PROC MIXED. Activation of peripheral blood mononuclear cells including iNKT cells was analyzed by flow cytometry. Flow cytometry data were analyzed by FCS Express 7 Research edition and GraphPad Prism v9. The plasma levels of regadenoson were determined via liquid chromatography-mass spectrometry.

[6] = tested on: SARS-CoV-2 strain B.1.351; type: in vivo, Golden Syrian hamster
COVID-19 patients = assay: Regadenoson infusion in hospitalized COVID-19 patients: safety and clinical monitoring; type: in vivo, human; details: for toxicities / side effects (nausea): during infusion or 30 days of follow-up; for SpO2: before vs 24 hours after RA infusion, pulse oximetry, N=5; for blood pressure: during and post RA infusion
Method: as §3
Consented Covid-19 patients were treated with RA administered intravenously using a pediatric infusion pump at a loading dose rate of 5 μg/kg/hr for 30 min followed by a maintenance dose of 1.44 μg/kg/hr for 6 hours. Subjects' vital signs including oxygen saturation (SpO2), blood pressure, heart rate and respiratory rate were monitored throughout RA infusion.
Blood samples were drawn as a source of peripheral blood mononuclear cells (PBMCs). Cells were frozen in 10% DMSO and thawed for analysis of live cells by flow cytometry. Cytokines, CRP, and D dimer levels were measured in plasma. Blood samples were collected just prior to the start of RA infusion (0 hr), just prior to the end of the loading dose (30 min), 4 hours into the maintenance dose (4.5 hr), and the next day (24 hr).

[7] = PI day 7, compared to control group

For `CNC(=O)c1cnn(-c2nc(N)c3ncn([C@@H]4O[C@H](CO)[C@@H](O)[C@H]4O)c3n2)c1` [Regadenoson], the measured cytokines reduced ([1]; 14-plex Luminex panel, after 4 hours of regadenoson infusion) was “Twelve of the fourteen”, the “levels of 13 pro-inflammatory cytokines, ratio over baseline” value ([1]; 30 minutes after start of RA infusion) was “very little effect” and the “pro-inflammatory cytokines reduced, ratio over baseline” value ([1]; 4.5 hours after start of RA infusion) was 11 of 13. For the same molecule, the treated mice died (SARS-CoV-2; 1.44 μg/kg/hr subcutaneous infusion, 7-day pump, mostly on day 7) was 50%, the “survival / mortality of infected K18-ACE2 mice” value (SARS-CoV-2) was “increases survival” and the “survival / mortality of infected K18-ACE2 mice” value (SARS-CoV-2; listed as RA) was “decreases mortality”. The “transplantation-induced plasma levels of sRAGE” value ([2]; 30 minutes post 1st lung reperfusion (low dose) and 30 minutes post 2nd lung reperfusion (low and high dose), P<0.0001 vs control) was “significantly diminished; also recorded: significantly reduced”, the “plasma sRAGE level” value ([2]; high dose, 30 minutes post the 1st lung reperfusion, P=0.0656) was “decreased in trend” and the peak plasma level ([3]; 400 μg bolus over 10 seconds for myocardial perfusion imaging) was “about 15 ng/ml”. The steady-state plasma level ([3]; after infusion for 6 hours of 1.44 μg/kg/h, prior sickle cell disease trial) was “about 2 ng/ml”, the terminal half-life ([3]; in vivo) was 2 h and the “safety / side effects” value ([3]; infusion at 1.44 μg/kg/h for 24-48 h, sickle cell crisis and lung transplantation) was “safe and devoid of side effects”. The “transplant-induced elevation of TNF-α” value ([4]; 30 minutes after reperfusion of 1st lung, low dose p=0.071, high dose p=0.154) was “trended toward reducing”, the “transplantation-induced plasma levels of IL-6” value ([4]; 30 minutes after reperfusion of 2nd lung, low dose p=0.041, high dose p=0.007 vs control) was “significantly inhibited” and the “plasma IL-10” value ([4]; low dose infusion, p=0.078) was “trended toward increasing”. The “plasma levels of IL-8” value ([4]; low dose, 30 minutes after reperfusion of 2nd lung, p=0.032) was “significantly reduced”, the “median peak plasma levels of regadenoson” value [5] was 14.24 ng/mL and the “peak plasma levels of regadenoson, range” value [5] was 3.64 to 78.64 ng/mL. For the same molecule, the “albumin leakage into BAL” value [6, 7] was “slight increase; also recorded: did not significantly”, the “plasma IL13” value [6, 7] was “slightly depressed; also recorded: did not significantly” and the “time course of the disease or viral titer detected in throat swabs” value ([6]; RT-qPCR) was “did not significantly”. The “plasma IL4” value ([6]; compared to control) was “depressed; also recorded: did significantly”, the “decrease in weight gain” value ([6]; daily weights, vs control group) was “did not significantly” and the “histologic distribution or severity of lung pathology” value ([6]; day 7) was “did not significantly”. For the same molecule, the “plasma Transforming Growth Factor beta (TGFb)” value ([6]; day 7, compared to control) was “decreased; also recorded: did significantly”, the “spread of virus to olfactory bulb (brain)” value ([6]; day 7, compared to control) was “decreased; also recorded: did significantly” and the “respiratory physiology parameters (EF50, Rpef, Penh)” value ([6]; whole body plethysmography, PI day 7) was “did not significantly”. The “toxicities / side effects (nausea)” value (COVID-19 patients; 5 COVID-19 patients) was “Transient and self-limiting nausea was reported by a single subject”, the “toxicities / side effects (nausea)” value (COVID-19 patients; 5 COVID-19 patients, listed as RA) was 1 case of transient self-limiting nausea, but no other toxicities or reportable side effects and the serious adverse events (COVID-19 patients; 5 COVID-19 patients, loading dose 5.0 μg/kg over 30 minutes, maintenance 1.44 μg/kg/hr for 6 hours) was “No serious adverse events were observed”. For the same molecule, the time to discharge (COVID-19 patients; 5 patients, all recovered) was 3 to 9 days, the D dimer levels (COVID-19 patients; 24 hours post RA infusion, n=5) was “significantly decreased” and the “SpO2 after the RA infusion” value (COVID-19 patients; Case 3, 88% on admission) was 97%. The SpO2 (COVID-19 patients) was “significantly less (P<0.05) than 24 hours after treatment; also recorded: statistically significant difference”, the SpO2 (COVID-19 patients; listed as RA) was “significantly further elevated” and the blood pressure (COVID-19 patients; n=5) was “no significant changes”. For the same molecule, the blood pressure (COVID-19 patients; n=5, listed as RA) was “remain stable”, the “CRP levels reduced by” value (COVID-19 patients; in 3 of 4 patients, 24 hours after RA infusion) was over 50% and the vital signs (COVID-19 patients; throughout the infusion and 12 hours post infusion) was “stable”. For the same molecule, the subjective symptoms (COVID-19 patients; within 24 hours of RA treatment) was “subjective improvement in all subjects”.
